# Legend:
# [1] = Biodistribution: percent of injected dose in tissues; format: in vivo, Sprague Dawley rats; settings: for % injected dose in bone: 100 μl complex i.v. via tail vein, bone estimated as femur x 25; for % injected dose in blood: blood assumed 7% of body weight; for % injected dose in muscle: muscle assumed 43% of body weight
# Procedure: Sprague Dawley rats were allowed to acclimate for five days then injected with 100 μl of the complex solution via a tail vein. The rats weighed between 150 and 200 g at the time of injection. After 30 min. the rats were killed by cervical dislocation and dissected. The amount of radioactivity in each tissue was determined by counting in a NaI scintillation counter coupled to a multichannel analyzer. The counts were compared to the counts in 100 μl standards in order to determine the percentage of the dose in each tissue or organ.
# The percent dose in blood was estimated assuming blood to be 7% of the body weight. The percent dose in bone was estimated by multiplying the percent dose in the femur by 25. The percent dose in muscle was estimated assuming muscle to be 43% of the body weight.
# [2] = Percent metal as a complex (Sephadex column, ion exchange method); format: physicochemical; settings: 1:1 ligand/metal, eluted with 4:1 saline (0.85% NaCl/NH4 OH)
# Procedure: A stock ^153 SmCl3 solution was prepared by adding 2 μL of 3×10^-4 M ^153 SmCl3 in 0.1N HCl to 2 mL of a 3×10^-4 M SmCl3 carrier solution. Appropriate ligand solutions were then prepared in deionized water. The 1:1 ligand/metal complexes were then prepared by combining the ligands (dissolved in 100-500 μL of deionized water) with 2 mL of the stock ^153 SmCl3 solution, followed by through mixing to give an acidic solution (pH=2). The pH of the solution was then raised to 7.0 using 0.1N NaOH. The percent metal as a complex was then determined by passing a sample of the complex solution through a Sephadex™ G-50 column, eluting with 4:1 saline ([…]) and collecting 2×3 mL fractions. The amount of radioactivity in the combined elutions was then compared with that left on the resin (non-complexed metal is retained on the resin). […]
# A solution of the ligand of Example 1 was prepared by dissolving 3.8 mg of ligand/0.517 mL of deionized water (pH=2). […] After thorough mixing, the percent metal as a complex was determined by passing a sample of the complex solution through a Sephadex™ column, eluting with 4:1 saline (0.85% NaCl/NH4 OH), and collecting 2×3 mL fractions. The amount of radioactivity in the combined elutions was then compared with that left on the resin. […] By this method complexation was determined to be 98%. […] The pH stability was then determined using the General Procedure above.
# [3] = patients with metastatic bone lesions; cited from earlier work
# [4] = Sprague Dawley rats, 30 min, average
# [5] = Sprague Dawley rats, tail vein, 30 min, average
# [6] = rats, 30 min, % dose/G printed for bone to blood ratio
Molecule,"bone to blood ratio ([1]; % dose/G, rats, 30 min)","% injected dose in bone [1, 4]","% injected dose in kidney [1, 5]","% injected dose in liver [1, 5]","% injected dose in blood [1, 5]","% injected dose in muscle [1, 5]","bone to liver ratio [1, 6]","bone to muscle ratio [1, 6]",bone localization ([1]; 5:1 ligand to metal ratio),"% injected dose in spleen [1, 5]",percent metal as a complex (complexation) [2],blood levels [3],lesion to normal bone ratios [3]
"O=P(O)(O)CN1CCN(CP(=O)(O)O)Cc2cccc(n2)CN(CP(=O)(O)O)CC1.[90Y] [^90 Y-PCTMP, complex of ^90 Y-3,6,9,15-tetraazabicyclo[9.3.1]pentadeca-1(15),11,13-triene-3,6,9-trimethylenephosphonic acid]",140,29%,0.36%,0.21%,0.18%,0.42%,76,400,,,,,
"O=P(O)(O)CN1CCN(CP(=O)(O)O)Cc2cccc(n2)CN(CP(=O)(O)O)CC1.[153Sm] [^153 Sm-PCTMP, complex of ^153 Sm-3,6,9,15-tetraazabicyclo[9.3.1]pentadeca-1(15),11,13-triene-3,6,9-trimethylenephosphonic acid]",,60%,0.38%,2.80%,0.29%,0.40%,,,about 60%,0.16%,98%,,
"O=P(O)(O)CN1CCN(CP(=O)(O)O)Cc2cccc(n2)CN(CP(=O)(O)O)CC1.[166Ho] [^166 Ho-PCTMP, complex of ^166 Ho-3,6,9,15-tetraazabicyclo[9.3.1]pentadeca-1(15),11,13-triene-3,6,9-trimethylenephosphonic acid]",,43%,0.33%,3.55%,0.12%,0.34%,,,,,,,
Strontium-89,,,,,,,,,,,,high,low
